Experiments:
Type in all cases: in vivo
[1] = test system: barnyardgrass (Echinochloa crus-galli); assay: Test C flooded paddy test; settings: Flood; for Plant response rating (scale of 0 to 100), Barnyardgrass: 0 is no effect, 100 is complete control
Procedure, shortened: (§1)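 Plants grown to the 2-leaf stage in pots flooded to 3 cm above soil; compounds applied directly into the paddy water, depth held throughout. After 13 to 15 d in greenhouse, injury visually rated against untreated controls on a 0–100 scale (0 no effect, 100 complete control).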

[2] = test system: ducksalad (Heteranthera limosa); assay: Test C flooded paddy test; settings: Flood; for Plant response rating (scale of 0 to 100), Ducksalad: 0 is no effect, 100 is complete control
Procedure, shortened: as §1

[3] = test system: rice (Oryza sativa); assay: Test C flooded paddy test; settings: Flood; for Plant response rating (scale of 0 to 100), Rice: 0 is no effect, 100 is complete control
Procedure, shortened: as §1

[4] = test system: sedge, umbrella (small-flower umbrella sedge, Cyperus difformis); assay: Test C flooded paddy test; settings: Flood; for Plant response rating (scale of 0 to 100), Sedge, Umbrella: 0 is no effect, 100 is complete control
Procedure, shortened: as §1

[5] = test system: redstem (purple redstem, Ammannia coccinea); assay: Test F flooded paddy test; settings: Flood
Excerpt: (§2) Plant species in the flooded paddy test consisted of one stand of 9 or 10 water seeded rice seedlings (Rice, W. S. Jap, Oryza sativa cv. ‘Japonica—M202’ or Rice, W. S. Ind, ‘Indica’), and two stands of 3 or 4 transplanted rice seedlings (Oryza sativa cv. ‘Japonica—M202’), Monochoria (Monochoria vaginalis), sedge, umbrella (small-flower umbrella sedge, Cyperus difformis), hardstem bulrush (Scirpus juncoides), redstem (purple redstem, Ammannia coccinea), rice flatsedge (Cyperus iria), bearded sprangletop (Leptochloa fascicularis), barnyardgrass (Echinochloa crus-galli), waterplantain (common waterplantain, Alisma plantago-aquatica), and late watergrass (Echinochloa oryzicola) grown to the 2 to 2.5 leaf stage for testing. Potted plants were grown in a greenhouse with day/night temperature settings of 30/27° C., and supplemental balanced lighting was provided to maintain a 16-hour photoperiod. At time of treatment, test pots were flooded to 3 cm above the soil surface, treated by application of test compounds directly to the paddy water, and then maintained at that water depth for the duration of the test. Effects of treatments on rice and weeds were visually evaluated by comparison to untreated controls after 21 d. Plant response ratings, summarized in Table F, are based on a scale of 0 to 100 where 0 is no effect and 100 is complete control. A dash (-) response means no test result.

[6] = test system: waterplantain (common waterplantain, Alisma plantago-aquatica); assay: Test F flooded paddy test; settings: Flood
Excerpt: as §2

[7] = 31 g ai/ha, scale 0 to 100 (0 no effect, 100 complete control), 13 to 15 d

CN1C[C@H](c2ccc(F)c(F)c2)[C@@H](C(=O)Nc2cccc(F)c2F)C1=O [Compound 639, (3S,4S)—N-(2,3-difluorophenyl)-4-(3,4-difluorophenyl)-1-methyl-2-oxo-3-pyrrolidinecarboxamide] was tested, and the “Plant response rating, Barnyardgrass” value [1, 7] was 0, the “Plant response rating (scale of 0 to 100), Barnyardgrass” value ([1]; 62 g ai/ha) was 50 and the “Plant response rating (scale of 0 to 100), Barnyardgrass” value ([1]; 125 g ai/ha) was 70. For the same molecule, the “Plant response rating (scale of 0 to 100), Barnyardgrass” value ([1]; 250 g ai/ha) was 75, the “Plant response rating, Ducksalad” value [2, 7] was 50 and the “Plant response rating (scale of 0 to 100), Ducksalad” value ([2]; 62 g ai/ha) was 75. For the same molecule, the “Plant response rating (scale of 0 to 100), Ducksalad” value ([2]; 125 g ai/ha) was 90, the “Plant response rating (scale of 0 to 100), Ducksalad” value ([2]; 250 g ai/ha) was 100 and the “Plant response rating, Rice” value [3, 7] was 0. For the same molecule, the “Plant response rating (scale of 0 to 100), Rice” value ([3]; 62 g ai/ha) was 0, the “Plant response rating (scale of 0 to 100), Rice” value ([3]; 125 g ai/ha) was 20 and the “Plant response rating (scale of 0 to 100), Rice” value ([3]; 250 g ai/ha) was 20. For the same molecule, the “Plant response rating, Sedge, Umbrella” value [4, 7] was 0, the “Plant response rating (scale of 0 to 100), Sedge, Umbrella” value ([4]; 62 g ai/ha) was 0 and the “Plant response rating (scale of 0 to 100), Sedge, Umbrella” value ([4]; 125 g ai/ha) was 0. The “Plant response rating (scale of 0 to 100), Sedge, Umbrella” value ([4]; 250 g ai/ha) was 0, the “Plant response rating: Redstem” value ([5]; 32 g ai/ha) was 0 and the “Plant response rating: Redstem” value ([5]; 64 g ai/ha) was 0. For the same molecule, the “Plant response rating: Redstem” value ([5]; 125 g ai/ha) was 0, the “Plant response rating: Redstem” value ([5]; 250 g ai/ha) was 30 and the “Plant response rating: Waterplantain” value ([6]; 32 g ai/ha) was 80. For the same molecule, the “Plant response rating: Waterplantain” value ([6]; 64 g ai/ha) was 80, the “Plant response rating: Waterplantain” value ([6]; 125 g ai/ha) was 98 and the “Plant response rating: Waterplantain” value ([6]; 250 g ai/ha) was 100.
